Laboratory results taken from patent publication US20190194621A1, “MEDIUM FOR CULTURING STEM CELLS, METHOD FOR CULTURING STEM CELLS, GROWTH PROMOTER FOR STEM CELLS, AND CELL COMPOSITION AND METHOD FOR PRODUCING SAME” (KYOWA HAKKO BIO CO., LTD., priority 2016, published 2019).

Test system: human iPS cell 253G1 cell line
Assay: Culture of human iPS cells in growth-factor-free medium with added compound; count of Hoechst-stained nuclei and OCT3/4 positive cells
Type: cell-based
Settings: for number of nuclei counted, increase as compared with the medium to which no growth factor was added (−GF) / expression ratio of OCT3/4 (proportion of Oct3/4 positive cells among Hoechst 33342 stained cells): 5 μM HA100, 0.05 μM DZNep or 0.01 nM TTNPB in growth-factor-free medium; for number of nuclei counted, increase as compared with the medium to which no growth factor was added (−GF): 3 days, 37° C., 10% CO2, average of four experiments; for expression ratio of OCT3/4 (proportion of Oct3/4 positive cells among Hoechst 33342 stained cells): +GF = 2 ng/mL activin A and 5 ng/mL bFGF
Procedure: A medium obtained by adding and dissolving separate components shown in the following Table 1 sterilized through a 0.22 μm filter, 10 μg/mL insulin (manufactured by Sigma-Aldrich Co. LLC.), 5 μg/mL apotransferrin (manufactured by Sigma-Aldrich Co. LLC.), and oleic acid-conjugated recombinant human serum albumin (manufactured by Sigma-Aldrich Co. LLC.) in a known medium (mESF Basal Medium, manufactured by Wako Pure Chemical Industries, Ltd.) was used as a medium in a negative control group. A medium obtained by adding 5 μM HA100 that is a ROCK inhibitor and a PKC inhibitor, 0.05 μM DZNep that is a histone methyltransferase inhibitor, or 0.01 nM TTNPB that is a retinoic acid receptor agonist to the medium of the negative control group was used as a medium in an evaluation target group. Further, a medium obtained by adding 2 ng/mL activin A (manufactured by Wako Pure Chemical Industries, Ltd.) and 5 ng/mL bFGF (manufactured by Wako Pure Chemical Industries, Ltd.) to the medium of the negative control group was used as a medium of a positive control group. The prepared medium in the negative control group, media in the evaluation target group (the medium obtained by adding HA100 to the medium in the negative control group, the medium obtained by adding DZNep to the medium in the negative control group, and the medium obtained by adding TTNPB to the medium in the negative control group), and medium in the positive control group were added to a 24-well plate for cell culture (manufactured by Sumitomo Bakelite Company Limited) at 1 mL/well, and a human iPS cell 253G1 cell line (established by Center for iPS Cell Research and Application, Kyoto University and obtained from iPS Academia Japan, Inc.) was cultured in the presence of 10% CO2 at 37° C. for 3 days. With respect to the cultured cells, the nuclei were stained with Hoechst 33342 (manufactured by Dojindo Laboratories). Further, OCT3/4 protein in the cells was stained with OCT-3/4 antibody C-10 (manufactured by Santa Cruz Biotechnology) and […] anti-mouse IgG (H+L) Secondary Antibod Alexa Fluor 488 conjugate (manufactured by Invitorogen Co.). Thereafter, the number of stained nuclei and the number of Oct3/4 positive cells were counted using In cell analyzer (manufactured by GE Healthcare, Inc.).

Compound	number of nuclei counted, increase as compared with the medium to which no growth factor was added (−GF) [times]	expression ratio of OCT3/4 (proportion of Oct3/4 positive cells among Hoechst 33342 stained cells) (3 days culture) [%]	growth compared with the medium to which a growth factor was added (+GF) (5 μM HA100 in growth-factor-free medium, 3 days culture)
Cl.O=S(=O)(c1cccc2cnccc12)N1CCNCC1 [HA100, 1-(5-isoquinolinesulfonyl)piperazine hydrochloride]	1.83	89.3	growth comparable to that in the case of using the medium to which a growth factor was added
Nc1nccc2c1ncn2C1C=C(CO)C(O)C1O (stereo not shown) [DZNep, 3-deazaneplanocin]	1.35	95.6	
C/C(=C\c1ccc(C(=O)O)cc1)c1ccc2c(c1)C(C)(C)CCC2(C)C [TTNPB, 4-[(E)-2-(5,6,7,8-tetrahydro-5,5,8,8-tetramethyl-2-naphthalenyl)-1-propenyl]benzoic acid]	1.24	84.2	
